These are literature values, as cited in US20190124976A1, “NICOTINE DOSAGE REGIMEN” (priority 2014, published 2019).

The conditions of the series: reported to be as low as.

For the molecule `CN1CCCC1c1cccnc1` (stereo not shown) [nicotine], the minimal lethal dose was 30 mg.
